Source: patent US10525055B2, “Opioid receptor antagonist prodrugs” (Nirsum Laboratories, Inc., priority 2017, dated 2020)

What was measured:
[1] = Liver S9 fraction stability, human; format: in vitro ADME; details: 1.0 mg/ml S9 protein, 2 μM, 37° C.
Protocol: (§1) Liver S9 fraction stability determination of the test compounds in dog, cynomolgus monkey and human is performed using HPLC-MS. Test compound (2 μM, 0.1% DMSO, 1% Methanol final concentration) was assessed for stability in a 50 μl phosphate buffer containing 1.0 mg/ml S9 protein from each of the three species and 5 mM D-saccharic acid-1, 4-lactone. Samples were incubated at 37° C. for 60 minutes and the % compound remaining was assessed.

[2] = Liver S9 fraction stability, dog; format: in vitro ADME; details: 1.0 mg/ml S9 protein, 2 μM, 37° C.
Protocol: as §1

[3] = Plasma stability assay, human plasma; format: in vitro ADME; details: 37° C., 2 μM; for % remaining at time point in minutes, 15 min: 15 min (as headed); for % remaining at time point in minutes, 120 min: 120 min (as headed); for % remaining at time point in minutes, 480 min: 480 min (as headed); for % remaining at time point in minutes, 1440 min: 1440 min (as headed)
Protocol: (§2) Plasma stability determination of the test compounds in rat, dog, cynomolgus monkey and human plasma is performed using HPLC-MS. For rat, incubations are carried out in 96-well polypropylene plates in 5 aliquots of 70 μL each (one for each time point). […] Five time points are analyzed (0, 15, 120, 480 and 1440 min). […] All incubations are performed in duplicates. The samples are analyzed by HPLC-MS. The percentage of parent compound remaining after incubation in plasma is determined.

[4] = Plasma stability assay, monkey plasma; format: in vitro ADME, cynomolgus monkey; details: 37° C., 2 μM; for % remaining at time point in minutes, 15 min: 15 min (as headed); for % remaining at time point in minutes, 120 min: 120 min (as headed); for % remaining at time point in minutes, 480 min: 480 min (as headed); for % remaining at time point in minutes, 1440 min: 1440 min (as headed)
Protocol: as §2

[5] = Plasma stability assay, dog plasma; format: in vitro ADME; details: 37° C., 2 μM; for % remaining at time point in minutes, 15 min: 15 min (as headed); for % remaining at time point in minutes, 120 min: 120 min (as headed); for % remaining at time point in minutes, 480 min: 480 min (as headed); for % remaining at time point in minutes, 1440 min: 1440 min (as headed)
Protocol: as §2

[6] = Liver S9 fraction stability, monkey; format: in vitro ADME, cynomolgus monkey; details: 1.0 mg/ml S9 protein, 2 μM, 37° C.
Protocol: as §1

[7] = Solubility determination in oil (cottonseed oil, sesame oil); details: Sesame oil
Protocol: A known amount of test substance (˜40 mg) was weighed into the vial, 100 μL of oil was added and heated to 60° C. and then system was slurried to reach equilibrium. […] Extra oil was added into the vial once compound precipitated out and then the system was re-equilibrated at 1000 rpm at room temperature (25° C.). Final concentration was determined by HPLC method as described below in Table 6a and 6b.

[8] = Rat pharmacokinetic studies, intramuscular; format: in vivo, male Sprague Dawley Rats; details: rat IM, Sesame oil + 1% Benzyl Alcohol
Protocol: The purpose of this study is to determine the pharmacokinetics of test compounds in plasma, following intramuscular administration to male Sprague Dawley Rats (n=3, unless otherwise specified).
The dose formulation of 400 mg base equivalents/ml in sesame oil+1% benzyl alcohol (unless otherwise specified) was administered by intramuscular injection. The dose volume was determined by the animals' body weight determined on the morning of dosing day.
Each collected blood sample was centrifuged for 4 minutes at 4° C. and 10000 rpm for plasma collection. Plasma was collected and transferred into a pre-labeled PP tube in dry ice at each time point and precipitated immediately using ACN at a ratio of 1:4 (plasma:ACN). Centrifuged again (10 minutes, 12000 rpm) and obtain the supernatant.
After terminal collection, all supernatant was stored at approximately −80° C. until bioanalysis.
LC-MS/MS methods for the quantitative determination of test compound in biological matrix were developed. […] The sample analysis was performed concurrently with a set of calibration standards and two sets of QC samples using the LC-MS/MS method.
Plasma concentration versus time data was analyzed by non-compartmental approaches using the Phoenix WinNonlin 6.3 software program. Cmax, Tmax, T1/2, AUC(0-t), AUC(0-inf), MRT(0-t), MRT(0-inf) and graphs of plasma concentration versus time profile were prepared.

[9] = Dog pharmacokinetic studies, deep intramuscular; format: in vivo, Beagle dogs; details: dog IM, Sesame oil + 1% Benzyl Alcohol
[10] = Plasma stability assay, rat plasma; format: in vitro ADME; details: 37° C., 10 μM
[11] = Physical characterization of solid state drug substance (PLM, XRPD, DSC, TGA); format: physicochemical; details: at 120° C., heated from room temperature at 10° C./minute
Protocol: The analysis of the physical characteristics of drug substances that were in a solid state was conducted using polarized light microscopy (PLM), X-ray powder diffractometer (XRPD) assessment, Differential Scanning calorimetry (DSC) and Thermal Gravimetric Analysis (TGA). For PLM, samples were dispersed in immersion oil and were observed using an ocular lens (10×) and objective lens (20×) under crossed polarizers. For XRPD, samples were run on a diffractometer using the following method: Tube—Cu: K-alpha (λ=1.54179 Å); Generator—Voltage 40 kV, Current 40 mA; Scan scope—3 to 40°; sample rotation speed—15 rpm; scanning rate—10 deg/min. For DSC, ˜1 mg of sample was tested using a crimped aluminum pan and covered by a lid with a hole, heated from room temperature to 300° C. at a speed of 10° C./minute. For TGA, 2-5 mg of sample was placed in an open platinum pan and heated from room temperature to 300° C. at a rate of 10° C./minute.

[12] = Polymorph screening of solid state drug substances; details: for XRPD results (Dried): stirred 50 °C 72 hours, solids dried; for Visual observation 50° C. / Visual observation RT: target conc. 100 mg/ml
[13] = heating temp. 60 °C, obs. temp. 25 °C

CCCCCCCCCCCCCCCC(=O)OC1CCCn2c1nc(C)c(CCN1CCC(c3noc4cc(F)ccc34)CC1)c2=O (stereo not drawn) [Paliperidone palmitate, reference compound]
Liver S9 Fraction Stability % remaining at 60 minutes, Human [1]: 47.8%
Liver S9 Fraction Stability % remaining at 60 minutes, Dog [2]: 56.4%
% remaining at time point in minutes, 0 min [3]: 100%
% remaining at time point in minutes, 15 min [3]: 103.7%
% remaining at time point in minutes, 120 min [3]: 97.6%
% remaining at time point in minutes, 480 min [3]: 109.1%
% remaining at time point in minutes, 1440 min [3]: 104.1%
% remaining at time point in minutes, 0 min [4]: 100%
% remaining at time point in minutes, 15 min [4]: 92%
% remaining at time point in minutes, 120 min [4]: 89.5%
% remaining at time point in minutes, 480 min [4]: 98.4%
% remaining at time point in minutes, 1440 min [4]: 92.5%
% remaining at time point in minutes, 0 min [5]: 100%
% remaining at time point in minutes, 15 min [5]: 91.2%
% remaining at time point in minutes, 120 min [5]: 88.4%
% remaining at time point in minutes, 480 min [5]: 95.9%
% remaining at time point in minutes, 1440 min [5]: 93.1%
Liver S9 Fraction Stability % remaining at 60 minutes, Monkey [6]: 57.4%

C=C1CC[C@@]2(O)C3Cc4ccc(OC(=O)CCCCCCC/C=C/CCCCCCCC)c5c4[C@@]2(CCN3CC2CC2)[C@H]1O5 [Compound 15, (4aS,7aS,12bS)-3-(cyclopropylmethyl)-4a-hydroxy-7-methylene-2,3,4,4a,5,6,7,7a-octahydro-1H-4,12-methanobenzofuro[3,2-e]isoquinolin-9-yl (E)-octadec-9-enoate]
Liver S9 Fraction Stability % remaining at 60 minutes, Human [1]: 59.8%
Liver S9 Fraction Stability % remaining at 60 minutes, Dog [2]: 80.9%
% remaining at time point in minutes, 0 min [3]: 100%
% remaining at time point in minutes, 15 min [3]: 83.3%
% remaining at time point in minutes, 120 min [3]: 82.5%
% remaining at time point in minutes, 480 min [3]: 107.1%
% remaining at time point in minutes, 1440 min [3]: 109.0%
% remaining at time point in minutes, 0 min [4]: 100%
% remaining at time point in minutes, 15 min [4]: 74.5%
% remaining at time point in minutes, 120 min [4]: 72.7%
% remaining at time point in minutes, 480 min [4]: 80.6%
% remaining at time point in minutes, 1440 min [4]: 76.5%
% remaining at time point in minutes, 0 min [5]: 100%
% remaining at time point in minutes, 15 min [5]: 82.5%
% remaining at time point in minutes, 120 min [5]: 80.6%
% remaining at time point in minutes, 480 min [5]: 90.1%
% remaining at time point in minutes, 1440 min [5]: 86.1%
Liver S9 Fraction Stability % remaining at 60 minutes, Monkey [6]: 76.7%
Approximate Solubility (mg/mL) in Excipient: Sesame oil ([7]; heating temp. 40 °C, obs. temp. 40 °C): <52 mg/mL
Approximate Solubility (mg/mL) in Excipient: Sesame oil [7, 13]: >396.5 mg/mL
AUC0-inf (ng · h/mL) prodrug ([8]; 80 mg/kg): 679 ng·h/mL
AUC0-inf (ng · h/mL) prodrug ([8]; 123 mg/kg): 2574 ng·h/mL
AUC0-inf (ng · h/mL) prodrug ([8]; 165 mg/kg): 2789 ng·h/mL
Half-life t1/2 (hour) prodrug ([8]; 165 mg/kg): 500 h
AUC0-inf (ng · h/mL) prodrug ([9]; 30 mg/kg): 521 ng·h/mL
Half-life t1/2 (hour) prodrug ([9]; 30 mg/kg): 134 h
AUC0-inf (ng · h/mL) prodrug ([9]; 48 mg/kg): 1144 ng·h/mL
Half-life t1/2 (hour) prodrug ([9]; 48 mg/kg): 518 h
AUC0-inf (ng · h/mL) prodrug ([9]; 96 mg/kg): 1353 ng·h/mL
Half-life t1/2 (hour) prodrug ([9]; 96 mg/kg): 162 h
% remaining at time point in minutes, 0 min [10]: 100%
% remaining at time point in minutes, 15 min [10]: 72%
% remaining at time point in minutes, 120 min [10]: 69.3%
% remaining at time point in minutes, 480 min [10]: 52%
% remaining at time point in minutes, 1440 min [10]: 35%

CCCCCCCCCCCC(=O)OCN1C(=O)CCc2ccc(OCCCCN3CCN(c4cccc(Cl)c4Cl)CC3)cc21 [Aripiprazole lauroxil, reference compound]
Liver S9 Fraction Stability % remaining at 60 minutes, Human [1]: 47.8%
Liver S9 Fraction Stability % remaining at 60 minutes, Dog [2]: 66.1%
% remaining at time point in minutes, 0 min [3]: 100%
% remaining at time point in minutes, 15 min [3]: 99.7%
% remaining at time point in minutes, 120 min [3]: 80%
% remaining at time point in minutes, 480 min [3]: 73.2%
% remaining at time point in minutes, 1440 min [3]: 75.5%
% remaining at time point in minutes, 0 min [4]: 100%
% remaining at time point in minutes, 15 min [4]: 95.2%
% remaining at time point in minutes, 120 min [4]: 94.5%
% remaining at time point in minutes, 480 min [4]: 75.5%
% remaining at time point in minutes, 1440 min [4]: 83.2%
% remaining at time point in minutes, 0 min [5]: 100%
% remaining at time point in minutes, 15 min [5]: 103%
% remaining at time point in minutes, 120 min [5]: 81.3%
% remaining at time point in minutes, 480 min [5]: 78.6%
% remaining at time point in minutes, 1440 min [5]: 74.3%
Liver S9 Fraction Stability % remaining at 60 minutes, Monkey [6]: 56.6%
% remaining at time point in minutes, 0 min [10]: 100%
% remaining at time point in minutes, 15 min [10]: 84%
% remaining at time point in minutes, 120 min [10]: 85.5%
% remaining at time point in minutes, 480 min [10]: 76.4%
% remaining at time point in minutes, 1440 min [10]: 46%

CCCCCCCCCCCCOC(=O)Oc1ccc2c3c1O[C@H]1C(=O)CC[C@@]4(O)C(C2)N(CC2CC2)CC[C@]314 [Compound 11, (4aS,7aR,12bS)-3-(cyclopropylmethyl)-4a-hydroxy-7-oxo-2,3,4,4a,5,6,7,7a-octahydro-1H-4,12-methanobenzofuro[3,2-e]isoquinolin-9-yl dodecyl carbonate]
Thermal Gravimetric Analysis, weight loss [11]: Weight loss of 0.30% at
XRPD results (Dried) ([12]; Acetone): Pattern A
Visual observation 50° C. ([12]; Acetone): Clear
Visual observation RT ([12]; Acetone): Slurry
XRPD results (Dried) ([12]; EtOAc): Pattern A
Visual observation 50° C. ([12]; EtOAc): Clear
Visual observation RT ([12]; EtOAc): Slurry
XRPD results (Dried) ([12]; Heptane): Pattern B
Visual observation 50° C. ([12]; Heptane): Clear
Visual observation RT ([12]; Heptane): Clear
XRPD results (Dried) ([12]; Isopropanol): Pattern A
Visual observation 50° C. ([12]; Isopropanol): Clear
Visual observation RT ([12]; Isopropanol): Slurry
XRPD results (Dried) ([12]; MTBE): Pattern A
Visual observation 50° C. ([12]; MTBE): Clear
Visual observation RT ([12]; MTBE): Clear
Comment: stability of initial crystal form (pattern A) ([12]; polymorph screen over Heptane, MTBE, Isopropanol, EtOAc, Acetone): to be stable form; Pattern A generated
Approximate Solubility (mg/mL) in Excipient: Sesame oil [7, 13]: <50 mg/mL
% remaining at time point in minutes, 0 min [10]: 100%
% remaining at time point in minutes, 15 min [10]: 0.7%
% remaining at time point in minutes, 120 min [10]: 0.3%
% remaining at time point in minutes, 480 min [10]: 0.2%
% remaining at time point in minutes, 1440 min [10]: 0%
